Consider 6 molecules from article PMC5814186, “Identification and characterization of novel enhanced cell penetrating peptides for anti-cancer cargo delivery” (Oncotarget, 2017).

No end group written: not given here.

The conditions of data set [1]: cited from earlier work. The source says: We have recently published the use of a CPP named Mut3DPT [15, 16]. […] We decided to generate new CPPs with enhanced penetration and stability, compared to the original Mut3DPT shuttle and keeping equilibrium among penetration, solubility and toxicity.
Data set [2] is described as follows: Stability to protease degradation in human serum. The conditions noted are these: 37°C, different periods of time up to 24 h, triplicate; for stability in human serum (percentage of intact peptide), shuttles associated to the cargo PP2A/SET, compared to the shuttle without cargo: MS (MALDI-TOF).
Description: We further analyzed the stability to proteases degradation of the shuttles in human serum upon incubation at 37°C for different periods of time. All the shuttles were incubated with human serum and the resistance to proteases degradation analyzed by HPLC-MS.
Figure 7 Stability of the new generated shuttles in human serum (A) The shuttles were incubated at 37°C in human serum for different periods of time and their integrity (percentage of intact peptide) was analyzed by mass spectrometry (MS). Every measurement was performed in triplicate. Standard deviation is shown. (B) The shuttles Tat, Penetatin and R8 were incubated as above and the integrity was analyzed by MS. Every measurement was performed in triplicate.
For this, the new generated bi-functional peptides (shuttles associated to the cargo PP2A/SET) were incubated with human serum for different periods of time.
Figure 9 Stability in human serum of the shuttles associated to a cargo (PP2A/SET binding site) The shuttles associated to the cargo PP2A/SET were incubated at 37°C in human serum for different periods of time and their integrity (percentage of intact peptide) was analyzed by mass spectrometry (MS). Measurements were performed in triplicate and standard deviation is shown.
Peptides were incubated at 37°C in 250 ml of human serum for different periods of time. Samples were collected and peptides degradation stopped by freezing. Peptides were extracted from samples using the Proteo Miner Protein Enrichment System (Bio-Rad). Peptide integrity (percentage of intact peptide) was analyzed by mass spectrometry (MS) using MALDI-TOF (Brucker Autoflex II) following their standard protocols. Measurements were performed in triplicate. MS data were analyzed using appropriate software (Clinprot tools, Flex analysis, Brucker).
For data set [3] the following is noted: cited from earlier work. The source says: Electrostatic interactions between the […] in the cell membrane surface are important for the internalization. […] When tryptophan residues were replaced by leucine residues, the peptide was not internalized.
This is another data set of the same source.

VKKKKIKAEIKI [Mut3DPT]: the “resistance to protease degradation” value in data set [1] is on record as “favourable parameters of resistance to protease degradation”.

As to `N=C(N)NCCC[C@H](NC(=O)[C@H](CCCNC(=N)N)NC(=O)[C@H](CCCNC(=N)N)NC(=O)[C@H](CCCNC(=N)N)NC(=O)[C@H](CCCNC(=N)N)NC(=O)[C@H](CCCNC(=N)N)NC(=O)[C@H](CCCNC(=N)N)NC(=O)[C@@H](N)CCCNC(=N)N)C(=O)O` [R8], the “stability in human serum (percentage of intact peptide), shuttles without cargo” value in data set [2] (MS (MALDI-TOF; text HPLC-MS)) is “degraded by serum proteases and almost not detected by HPLC-MS upon 24 h of incubation”.

Turning to RRWWRRWRR [RW9, literature CPP RW9 (…)], in data set [3], the “cellular uptake / internalization” value is on record as “good cellular uptake”.

As to “KKKKKWKKWKKKETVTLLVALKVRYRERIT [Mut7DPT-PP2A/SET]”, the “stability in human serum (percentage of intact peptide), shuttles associated to the cargo PP2A/SET, compared to the shuttle without cargo” value in data set [2] was “does not significantly modify the stability”.

Consider “KKWKKWKKWKKETVTLLVALKVRYRERIT [Mut5DPT-PP2A/SET]”, for which the “stability in human serum (percentage of intact peptide), shuttles associated to the cargo PP2A/SET, compared to the shuttle without cargo” value in data set [2] is listed as “slightly degradation upon 24 h”.

Regarding “RRWRRWRRWRRETVTLLVALKVRYRERIT [Mut6DPT-PP2A/SET]”, the “stability in human serum (percentage of intact peptide), shuttles associated to the cargo PP2A/SET, compared to the shuttle without cargo” value in data set [2] is on record as “does not significantly modify the stability”.
